From patent publication US20260027118A1, “COMPOSITIONS USEFUL FOR MODULATING SPLICING” (Skyhawk Therapeutics, Inc., priority 2022, published 2026)

Tests used:
ATXN3-HiBiT protein = experiment: ATXN3 HiBiT assay (Nano Glo HiBiT luminescence); type: cell-based; conditions: Kelly-ATXN3-HiBiT cells, luminescence read out 48 h after addition of the compound
Description: To monitor ATXN3 protein levels by luminescence, a Kelly-ATXN3-HiBiT cell line with homozygous knock-in of HiBiT at the C-terminus of the endogenous ATXN3 gene was used (knock-in of the HiBiT-tag coding sequence SEQ ID NO. 14: 5′[…]3′ into exon 11 of ATXN3 -position 1114 of ATXN3 RefSeq NM_004993.6). Manipulations of the Kelly-ATXN3-HiBiT cell line that result in downregulation of the ATXN3-HiBiT protein (through modulation of ATXN3-HiBiT pre-mRNA splicing) can be followed by monitoring the luminescence signal of the HiBiT tag using the Nano Glo HiBiT Lytic Detection System (Promega, #N3050). Kelly-ATXN3-HiBiT cells were maintained in RPMI 1640 w/Glutamax (Gibco, #61870010), 10% FBS (Sigma Aldrich, #F8687), 1% Penicillin/Streptomycin (Gibco, #15140-122) at 37° C., 5% CO2. To assess HiBiT-luminescence signal upon compound treatment, 2000 Kelly-ATXN3-HiBiT cells were seeded per well in 384 plate format. Compounds were added 24 h after seeding. ATXN3-HiBiT-luminescence signal was read out 48 h after addition of the compound using the Nano Glo HiBiT Lytic Detection System (Promega, #N3050) according to the manufacturer's instructions. To control for cell viability, an identically prepared sister plate was read out with the CellTiter-Glo® 2.0 Assay (Promega, #G9243) according to the manufacturer's instructions. Fold changes of ATXN3-HiBiT-luminescence and of CellTiter-Glo viability signals were calculated relative to a DMSO control condition.

[1] = test system: ATXN3 transcripts containing exon 4; experiment: ATXN3 Quantitative Splicing Assay (qPCR, E4E5 primers/probe); type: cell-based, Human; conditions: SK-N-MC cells, treated with compounds for 24 h, qPCR of transcripts containing exon 4
Method: Human neuroblastoma SK-N-MC cells were plated in 384-well plates at 20,000 cells/well. Twenty-four hours after plating, cells were treated with compounds for 24 h at appropriate concentrations ranging from 30.M to 0.6 nM (0.300 DMS0). Treated cells were lysed in 15 μL of lysis buffer, and cDNA was synthesized using the Fast Advanced Cells-to-Ct kit. Two μL of each cDNA was used in qPCR reactions to confirm the exon 4 skipped transcripts of ATXN3. A second set of primers/probe E4E5 was used to detect the transcripts containing exon 4. The third set of primers/probe E8E9 was used to detect total gene level of ATXN3. The qPCR reactions were prepared in 384-well plates in 10 μL volume, using TaqMan™ Fast Advanced Master Mix with primers and probes shown in the table below. Reactions were run in a Quant Studio 6 qPCR instrument with default settings.
The primers and probes are listed below in Table 4.

total ATXN3 protein = experiment: ATXN3 total protein assay (Mesoscale Discovery); type: cell-based, Human; conditions: SK-N-MC cells, 48 hours incubation, MSD assay
Method: Human neuroblastoma SK-N-MC cells were seeded at 10,000 cells/well in 384 well plates one day prior to compound treatment. The concentrations of compounds were tested at appropriate doses ranging from 30 μM to 0.6 nM. After incubation for 48 hours, the cells were lysed with 25 μL of lysis buffer containing protease inhibitors, and total ATXN3 protein levels were assessed by Mesoscale Discovery (MSD) assay developed with one pair of anti-ATXN3 antibodies. The capture and detect antibodies were raised in mouse and rabbit respectively. Anti-rabbit MSD-ST antibody was used for secondary antibody. ATXN3 recombinant protein was used for standards. The readouts were captured with 35 μL of MSD read buffer and multi-array 384-well high binding plates.

| Molecule | EC50 (ATXN3-HiBiT protein) | IC50 ([1]; Homo sapiens) | IC50 [1] | IC50 (total ATXN3 protein) |
| --- | --- | --- | --- | --- |
| 2-[(R)-2-amino-3-methoxy(1,1- ^2H2)propyl]-5-chloro-3-(1- propynyl)-7-thenylamino-1-oxa-4- azaindene [Compound 44] | 0.01 to 100 nM |  |  |  |
| CC#Cc1c(C2CCC2N)oc2c(NCc3cccs3)cc(Cl)nc12 (single isomer, unassigned) [Compound 50, 2-(2-aminocyclobutyl)-5-chloro-3-(prop-1-yn-1-yl)-N-(thiophen-2-ylmethyl)furo[3,2-b]pyridin-7-amine] |  | 501 to 5000 nM |  |  |
| CC#Cc1c(C2CCC2N)oc2c(NCc3cccs3)cc(Cl)nc12 (single isomer, unassigned) [Compound 51, 2-(2-aminocyclobutyl)-5-chloro-3-(prop-1-yn-1-yl)-N-(thiophen-2-ylmethyl)furo[3,2-b]pyridin-7-amine] |  |  | 501 to 5000 nM |  |
| CC#Cc1c(C[C@H](C)N)oc2c(NCc3cccs3)cc(Cl)nc12 [Compound 1, 2-[(S)-2-aminopropyl]-5-chloro-3-(1-propynyl)-7-thenylamino-1-oxa-4-azaindene] | 101 to 500 nM | 101 to 500 nM |  | 101 to 500 nM |
| CC#Cc1c(C[C@H](C)N)oc2c(NCc3ccco3)cc(Cl)nc12 [Compound 2, 2-[(S)-2-aminopropyl]-5-chloro-7-(furfurylamino)-3-(1-propynyl)-1-oxa-4-azaindene] | 101 to 500 nM | 101 to 500 nM |  | 101 to 500 nM |
| CC#Cc1c(C[C@@H](N)CC(F)(F)F)oc2c(NCc3ccco3)cc(Cl)nc12 [Compound 3, 2-[(R)-2-amino-4,4,4-trifluorobutyl]-5-chloro-7-(furfurylamino)-3-(1-propynyl)-1-oxa-4-azaindene] | 101 to 500 nM | 101 to 500 nM |  | 101 to 500 nM |
| CC#Cc1c(C[C@@H](N)CC(F)(F)F)oc2c(NCc3cccs3)cc(Cl)nc12 [Compound 4, 2-[(R)-2-amino-4,4,4-trifluorobutyl]-5-chloro-3-(1-propynyl)-7-thenylamino-1-oxa-4-azaindene] | 101 to 500 nM | 101 to 500 nM |  | 101 to 500 nM |
| CC#Cc1c(C[C@@H](N)[C@H](C)F)oc2c(NCc3ccco3)cc(Cl)nc12 [Compound 5, 2-[(2R,3S)-2-amino-3-fluorobutyl]-5-chloro-7-(furfurylamino)-3-(1-propynyl)-1-oxa-4-azaindene] | 0.01 to 100 nM | 0.01 to 100 nM |  | 0.01 to 100 nM |
| CC#Cc1c(C[C@@H](N)[C@H](C)F)oc2c(NCc3cccs3)cc(Cl)nc12 [Compound 6, 2-[(2R,3S)-2-amino-3-fluorobutyl]-5-chloro-3-(1-propynyl)-7-thenylamino-1-oxa-4-azaindene] | 0.01 to 100 nM | 0.01 to 100 nM |  | 0.01 to 100 nM |
| C[C@H](F)[C@H](N)Cc1oc2c(NCc3ccco3)cc(Cl)nc2c1C#CC1CC1 [Compound 7, 2-[(2R,3S)-2-amino-3-fluorobutyl]-5-chloro-3-(2-cyclopropylethynyl)-7-(furfurylamino)-1-oxa-4-azaindene] | 101 to 500 nM | 101 to 500 nM |  | 101 to 500 nM |
| C[C@H](F)[C@H](N)Cc1oc2c(NCc3cccs3)cc(Cl)nc2c1C#CC1CC1 [Compound 8, 2-[(2R,3S)-2-amino-3-fluorobutyl]-5-chloro-3-(2-cyclopropylethynyl)-7-thenylamino-1-oxa-4-azaindene] | 101 to 500 nM | 101 to 500 nM |  | 501 to 5000 nM |
| C[C@H](N)Cc1oc2c(NCc3ccco3)cc(Cl)nc2c1C#CC1CC1 [Compound 9, 2-[(S)-2-aminopropyl]-5-chloro-3-(2-cyclopropylethynyl)-7-(furfurylamino)-1-oxa-4-azaindene] | 501 to 5000 nM | 501 to 5000 nM |  | 501 to 5000 nM |
| CC#Cc1c(C[C@@H](N)[C@H](C)F)oc2c(NCc3ccccc3F)cc(Cl)nc12 [Compound 13, 2-[(2R,3S)-2-amino-3-fluorobutyl]-5-chloro-7-{[(o-fluorophenyl)methyl]amino}-3-(1-propynyl)-1-oxa-4-azaindene] | 501 to 5000 nM |  |  |  |
| CC#Cc1c(C[C@@H](N)[C@H](C)F)oc2c(NCc3c(F)cccc3F)cc(Cl)nc12 [Compound 14, 2-[(2R,3S)-2-amino-3-fluorobutyl]-5-chloro-7-{[(2,6-difluorophenyl)methyl]amino}-3-(1-propynyl)-1-oxa-4-azaindene] | 10000 to 40000 nM |  |  |  |
| CC#Cc1c(C[C@@H](N)CCOC(F)F)oc2c(NCc3cccs3)cc(Cl)nc12 [Compound 31, 2-[(S)-2-amino-4-difluoromethoxybutyl]-5-chloro-3-(1-propynyl)-7-thenylamino-1-oxa-4-azaindene] | 0.01 to 100 nM |  |  |  |
| CC#Cc1c(C[C@@H](N)CO)oc2c(NCc3cccs3)cc(Cl)nc12 [Compound 34, (R)-2-amino-3-[5-chloro-3-(1-propynyl)-7-thenylamino-1-oxa-4-aza-2-indenyl]-1-propanol] | 0.01 to 100 nM |  |  |  |
| [2H]C([2H])([2H])OC[C@H](N)Cc1oc2c(NCc3cccs3)cc(Cl)nc2c1C#CC [Compound 35, 2-[2-amino-3-(^2H3)methoxypropyl]-5-chloro-3-(1-propynyl)-7-thenylamino-1-oxa-4-azaindene] | 0.01 to 100 nM |  |  |  |
| CC#Cc1c(C[C@@H](N)[C@H](C)F)oc2c(NCc3cccs3)c(F)c(Cl)nc12 [Compound 37, 2-[(2R,3S)-2-amino-3-fluorobutyl]-5-chloro-6-fluoro-3-(1-propynyl)-7-thenylamino-1-oxa-4-azaindene] |  | 501 to 5000 nM |  |  |
| [2H]C([2H])([2H])OC[C@H](N)Cc1oc2c(NC([2H])([2H])c3cccs3)cc(Cl)nc2c1C#CC [Compound 40, 2-[(R)-2-amino-3-(^2H3)methoxypropyl]-5-chloro-3-(1-propynyl)-7-{[(2-thienyl)(^2H2)methyl]amino}-1-oxa-4-azaindene] | 0.01 to 100 nM |  |  |  |
| [2H]C([2H])([2H])OCC[C@H](N)Cc1oc2c(NCc3cccs3)cc(Cl)nc2c1C#CC [Compound 42, 2-[(S)-2-amino-4-(^2H3)methoxybutyl]-5-chloro-3-(1-propynyl)-7-thenylamino-1-oxa-4-azaindene] | 0.01 to 100 nM |  |  |  |
| [2H]C([2H])(c1oc2c(NCc3cccs3)cc(Cl)nc2c1C#CC)[C@H](C)N [Compound 43, 2-[(S)-2-amino(1,1-^2H2)propyl]-5-chloro-3-(1-propynyl)-7-thenylamino-1-oxa-4-azaindene] | 0.01 to 100 nM |  |  |  |
| [2H]C([2H])(c1oc2c(NCc3cccs3)cc(Cl)nc2c1C#CC)[C@@H](N)CF [Compound 45, 2-[(R)-2-amino-3-fluoro(1,1- ^2H2)propyl]-5-chloro-3-(1-propynyl)-7-thenylamino-1-oxa-4-azaindene] | 0.01 to 100 nM |  |  |  |
| [2H]C([2H])([2H])OC([2H])([2H])[C@H](N)Cc1oc2c(NCc3cccs3)cc(Cl)nc2c1C#CC [Compound 47, 2-[(R)-2-amino-3-(^2H3)methoxy(3,3-^2H2)propyl]-5-chloro-3-(1-propynyl)-7-thenylamino-1-oxa-4-azaindene] | 0.01 to 100 nM |  |  |  |
| [2H]C([2H])(OC(F)F)[C@H](N)Cc1oc2c(NCc3cccs3)cc(Cl)nc2c1C#CC [Compound 48, 2-[(R)-2-amino-3-difluoromethoxy(3,3-^2H2)propyl]-5-chloro-3-(1-propynyl)-7-thenylamino-1-oxa-4-azaindene] | 0.01 to 100 nM |  |  |  |
| CC#Cc1c([C@H]2CCCC[C@@H]2N)oc2c(NCc3cccs3)cc(Cl)nc12 [Compound 49, 2-[(1S,2S)-2-aminocyclohexyl]-5-chloro-3-(1-propynyl)-7-thenylamino-1-oxa-4-azaindene] |  | 0.01 to 100 nM |  |  |
| CC#Cc1c([C@H]2CC(F)(F)CC[C@@H]2N)oc2c(NCc3cccs3)cc(Cl)nc12 [Compound 52, 2-[(1S,2S)-2-amino-5,5-difluorocyclohexyl]-5-chloro-3-(1-propynyl)-7-thenylamino-1-oxa-4-azaindene] |  | 0.01 to 100 nM |  |  |
